Data as given in US20260232666A1, “COMPOSITIONS AND METHODS FOR INHIBITION OF RAS” (TheRas, Inc., priority 2023, published 2026).
pIC50: −log10 of the molar value.

What was measured:
[1] = biological target: T1, GTP-loaded KRAS4b (amino acids 1-169) G12C/C118S protein (Homo sapiens, UniProt P01116, C118S/G12C); assay: Covalent cysteine 12 modification by MALDI-TOF MS, GTP-loaded KRAS G12C; format: binding; conditions: 15 minutes reaction time point
T1 construct: KRAS4b (amino acids 1-169) G12C/C118S protein; made in house
Method in brief: (§1)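 1 μM GppNHp-, GTP- or GDP-loaded KRAS4b (1-169) G12C/C118S in 20 mM HEPES, 150 mM NaCl, 1 mM MgCl2, pH 7.3, at 1:2.5 protein:compound, room temperature in the dark. Percent Cys12 modification from MALDI-TOF peak heights (adduct/total protein), reported at 15 min.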

[2] = biological target: T2, Avi-KRAS G12C (1-169) GppNHp/RAF1 RBD-3×FLAG (52-151) (Homo sapiens, UniProt P01116, G12C); assay: Raf1 RBD-KRAS G12C-GppNHp disruption assay (protein:protein interaction HTRF); format: biochemical
T2 construct: Avi-KRAS G12C (1-169) GppNHp; Avi (N)
Method in brief: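 HTRF measuring RAF1 RBD binding to GppNHp-loaded KRAS G12C (50 nM) in Tris pH 7.5, 100 mM NaCl, 5 mM MgCl2, 10% DMSO. Compound, KRAS, RBD and detection reagents each added sequentially with 1 h room-temperature incubations; 10-point titration; excitation 320 nm, emission 615 nm; activity as % of DMSO; IC50 derived.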

[3] = biological target: T3, GppNHp-loaded KRAS4b (amino acids 1-169) G12C/C118S protein (Homo sapiens, UniProt P01116, C118S/G12C); assay: Covalent cysteine 12 modification by MALDI-TOF MS, GppNHp-loaded KRAS G12C; format: binding; conditions: 15 minutes reaction time point
T3 construct: KRAS4b (amino acids 1-169) G12C/C118S protein; made in house
Method in brief: as §1

Row | SMILES | GTP-KRAS G12C percent of modification [1] | pIC50 [2] | GppNHp-KRAS G12C percent of modification [3]
1 | C=CC(=O)N1CC[C@@H](N(C)c2nc(OC[C@@]34CCCN3C[C@H](F)C4)nc3c(F)c(-c4nc(N)cc(C)c4C(F)(F)F)c(Cl)cc23)[C@H]1C [Compound 78, 1-[(2R,3R)-3-[[7-[6-amino-4-methyl-3-(trifluoromethyl)-2-pyridyl]-6-chloro-8-fluoro-2-[[(2R,8S)-2-fluoro-1,2,3,5,6,7-hexahydropyrrolizin-8-yl]methoxy]quinazolin-4-yl]-methyl-amino]-2-methyl-pyrrolidin-1-yl]prop-2-en-1-one] | A (percent of modification ≥70%) | > 6.30 | A (percent of modification ≥70%)
2 | C=CC(=O)N1CCC(N(C)c2nc(OC[C@@]34CCCN3C[C@H](F)C4)nc3c(F)c(-c4ccc(F)c5sc(N)c(C#N)c45)c(C(F)(F)F)cc23)[C@H]1CC (some centres unmarked) [Compound 3] | B (50≤percent of modification <70%) | > 6.30 | C (10%≤percent of modification <50%)
3 | C=CC(=O)N1CC[C@@H](N(C)c2nc(OC[C@@H]3C[C@@H](F)CN3C)nc3c(F)c(-c4ccc(F)c5sc(N)c(C#N)c45)c(Cl)cc23)[C@@H]1C [Compound 82] | C (10%≤percent of modification <50%) | > 6.30 | A (percent of modification ≥70%)
4 | C=CC(=O)N1CC2CCC(C1)N2c1nc(OC[C@@]23CCCN2C[C@H](F)C3)nc2c(F)c(-c3ccc(F)c4sc(N)c(C#N)c34)c(C(F)(F)F)cc12 [Compound 49] | D (percent of modification <10%) | > 6.30 | C (10%≤percent of modification <50%)
5 | C=CC(=O)N1CC[C@@H](N(CC)c2nc(OC[C@@]34CCCN3C[C@H](F)C4)nc3c(F)c(-c4ccc(F)c5sc(N)c(C#N)c45)ccc23)[C@@H]1CC [Compound 50] | D (percent of modification <10%) | 5.30 to 6.30 | D (percent of modification <10%)
6 | C=CC(=O)N1CC[C@@H](N(CC)c2nc(OC[C@@]34CCCN3C[C@H](F)C4)nc3cc(-c4ccc(F)c5sc(N)c(C#N)c45)c(F)cc23)[C@H]1CC [Compound 76] | B (50≤percent of modification <70%) | > 6.30 | A (percent of modification ≥70%)
7 | C=CC(=O)N1CC[C@@H](N(C)c2nc(OC[C@@H]3CCCN3C)nc3c(F)c(-c4ccc(F)c5sc(N)c(C#N)c45)c(Cl)cc23)[C@@H]1C [Compound 83] | B (50≤percent of modification <70%) | > 6.30 | A (percent of modification ≥70%)
8 | C=CC(=O)N1CC[C@@H](N(C)c2nc(OC[C@@H]3C[C@@H](OC)CN3CC)nc3c(F)c(-c4ccc(F)c5sc(N)c(C#N)c45)c(Cl)cc23)[C@H]1C [Compound 99] | A (percent of modification ≥70%) | > 6.30 | A (percent of modification ≥70%)
9 | C=CC(=O)N1CC[C@@H](N(C)c2nc(OC[C@@H]3C[C@@H](OC)CN3C)nc3c(F)c(-c4ccc(F)c5sc(N)c(C#N)c45)c(Cl)cc23)[C@@H]1C [Compound 79] | C (10%≤percent of modification <50%) | > 6.30 | A (percent of modification ≥70%)
10 | C=CC(=O)N1CC[C@@H](N(CC)c2nc(OC[C@@H]3C[C@@H](F)CN3C)nc3c(F)c(-c4ccc(F)c5sc(N)c(C#N)c45)c(C(F)(F)F)cc23)[C@H]1C [Compound 52] | A (percent of modification ≥70%) | > 6.30 | B (50≤percent of modification <70%)
11 | C=CC(=O)N1CC[C@@H](N(C)c2nc(OC[C@@H]3C[C@@H](F)CN3CC)nc3c(F)c(-c4ccc(F)c5sc(N)c(C#N)c45)c(Cl)cc23)[C@H]1C [Compound 98] | D (percent of modification <10%) | 5.30 to 6.30 | D (percent of modification <10%)
12 | C=CC(=O)N1CC[C@@H](N(CC)c2nc(OC[C@@]34CCCN3C[C@H](F)C4)nc3c(F)c(-c4ccc(F)c5sc(N)c(C#N)c45)ccc23)[C@@H]1C [Compound 57] | C (10%≤percent of modification <50%) | > 6.30 | B (50≤percent of modification <70%)
13 | C=CC(=O)N1C[C@H]2C[C@@H]1CN2c1nc(OC[C@@]23CCCN2C[C@H](F)C3)nc2c(F)c(-c3ccc(F)c4sc(N)c(C#N)c34)c(C(F)(F)F)cc12 [Compound 37] | D (percent of modification <10%) | 5.30 to 6.30 | D (percent of modification <10%)
14 | C=CC(=O)N1CC[C@@H](N(C)c2nc(OC[C@@H]3CC4(CC4)CN3CC)nc3c(F)c(-c4ccc(F)c5sc(N)c(C#N)c45)c(Cl)cc23)[C@H]1C [Compound 97] | A (percent of modification ≥70%) | > 6.30 | A (percent of modification ≥70%)
15 | C=CC(=O)N1CC[C@@H](N(CC)c2nc(OC[C@@]34CCCN3C[C@H](F)C4)nc3cc(-c4ccc(F)c5sc(N)c(C#N)c45)c(C#N)cc23)[C@@H]1C [Compound 56] | C (10%≤percent of modification <50%) | > 6.30 | B (50≤percent of modification <70%)
16 | C=CC(=O)N1CC[C@@H](N(C)c2nc(OC[C@@H]3CCCN3C)nc3c(F)c(-c4ccc(F)c5sc(N)c(C#N)c45)c(C(F)(F)F)cc23)[C@H]1C [Compound 67] | A (percent of modification ≥70%) | > 6.30 | A (percent of modification ≥70%)
17 | C=CC(=O)N1CC[C@@H](N(C)c2nc(OC[C@@H]3CCCN3CC)nc3c(F)c(-c4ccc(F)c5sc(N)c(C#N)c45)c(C(F)(F)F)cc23)[C@H]1C [Compound 88] | B (50≤percent of modification <70%) | > 6.30 | –
18 | C=CC(=O)N1CC[C@@H](N(CC)c2nc(OC[C@@]34CCCN3C[C@H](F)C4)nc3cc(-c4ccc(F)c5sc(N)c(C#N)c45)c(C#N)cc23)[C@@H]1CC [Compound 40] | D (percent of modification <10%) | 5.30 to 6.30 | D (percent of modification <10%)
19 | C=CC(=O)N1CC[C@@H](N(CC)c2nc(OC[C@@H]3C[C@@H](F)CN3C)nc3c(F)c(-c4ccc(F)c5sc(N)c(C#N)c45)c(Cl)cc23)[C@H]1C [Compound 60] | B (50≤percent of modification <70%) | > 6.30 | B (50≤percent of modification <70%)
20 | C=CC(=O)N1CC[C@@H](N(C)c2nc(OC[C@@H]3CCCN3CC)nc3c(F)c(-c4ccc(F)c5sc(N)c(C#N)c45)c(Cl)cc23)[C@@H]1C [Compound 84] | B (50≤percent of modification <70%) | > 6.30 | A (percent of modification ≥70%)
21 | C=CC(=O)N1CC[C@@H](N(CC)c2nc(OC[C@@]34CCCN3C[C@H](F)C4)nc3c(F)c(-c4ccc(F)c5sc(N)c(C#N)c45)c(C(F)(F)F)cc23)[C@@H]1C [Compound 86] | B (50≤percent of modification <70%) | > 6.30 | A (percent of modification ≥70%)
22 | C=CC(=O)N1CC[C@@H](N(CC)c2nc(OC[C@@]34CCCN3C[C@H](F)C4)nc3c(F)c(-c4ccc(F)c5sc(N)c(C#N)c45)c(Cl)cc23)[C@@H]1C [Compound 77] | A (percent of modification ≥70%) | > 6.30 | A (percent of modification ≥70%)
23 | C=CC(=O)N1CCC(N(C)c2nc(OC[C@@]34CCCN3C[C@H](F)C4)nc3c(F)c(-c4ccc(F)c5sc(N)c(C#N)c45)c(Cl)cc23)[C@H]1CC (some centres unmarked) [Compound 2] | D (percent of modification <10%) | 5.30 to 6.30 | D (percent of modification <10%)
24 | C=CC(=O)N1CC2CC(C1)N2c1nc(OC[C@@]23CCCN2C[C@H](F)C3)nc2c(F)c(-c3ccc(F)c4sc(N)c(C#N)c34)c(C(F)(F)F)cc12 [Compound 46] | D (percent of modification <10%) | 5.30 to 6.30 | D (percent of modification <10%)
25 | C=CC(=O)N1CC[C@@H](N(C)c2nc(OC[C@@H]3C[C@@H](OC)CN3C)nc3c(F)c(-c4ccc(F)c5sc(N)c(C#N)c45)c(Cl)cc23)[C@H]1C [Compound 63, 4-(4-(((2R,3R)-1-acryloyl-2-methylpyrrolidin-3-yl)(methyl)amino)-6-chloro-8-fluoro-2-(((2S,4R)-4-methoxy-1-methylpyrrolidin-2-yl)methoxy)quinazolin-7-yl)-2-amino-7-fluorobenzo[b]thiophene-3-carbonitrile] | B (50≤percent of modification <70%) | > 6.30 | B (50≤percent of modification <70%)
